“And” between values parts separate entries of the source, which are not always exact repeats. Identical values can stand only once.
How the values were obtained:
[1] = molecular target: T1, human recombinant MAO-A (Homo sapiens, UniProt P21397); experiment: MAO-Glo MAO-A inhibition assay; format: biochemical; conditions: for MAO-A enzyme assay, Percent of control: N=1-3, listed as UroB
T1 construct: purchased Sigma-Aldrich
T1 sequence (P21397 1-527): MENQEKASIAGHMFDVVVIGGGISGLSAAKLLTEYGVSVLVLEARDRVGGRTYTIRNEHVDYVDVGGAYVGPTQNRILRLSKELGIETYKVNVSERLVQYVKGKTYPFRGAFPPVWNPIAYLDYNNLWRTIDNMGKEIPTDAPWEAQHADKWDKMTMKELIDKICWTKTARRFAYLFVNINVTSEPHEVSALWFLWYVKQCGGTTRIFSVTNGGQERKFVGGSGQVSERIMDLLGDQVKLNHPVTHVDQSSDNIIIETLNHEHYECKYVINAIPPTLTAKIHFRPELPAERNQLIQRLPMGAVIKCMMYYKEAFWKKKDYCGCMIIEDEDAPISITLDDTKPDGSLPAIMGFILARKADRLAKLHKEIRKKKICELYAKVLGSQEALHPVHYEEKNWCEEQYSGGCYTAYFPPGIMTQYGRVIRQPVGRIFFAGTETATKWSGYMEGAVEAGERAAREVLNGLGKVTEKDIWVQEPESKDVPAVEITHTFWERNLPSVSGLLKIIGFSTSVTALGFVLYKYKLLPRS
Method: (§1) MAO inhibition assays were performed using a MAO-Glo™ Assay kit (Promega) according to the manufacturer’s instructions. Briefly, 1 µg of human recombinant MAO-A and MAO-B enzyme isoforms were incubated with 160 and 16 µM of MAO substrates, respectively. […] The enzyme reaction was quenched by the addition of a luciferin detection reagent. […] An equal volume of dimethyl sulfoxide (0.1%) was added to the enzyme assay as a control. After 1 h of incubation, the luminescence was measured with a multimode microplate reader (Synergy HT, BioTek, Winooski, VT, USA) to determine the MAO enzyme activities. Initially, the inhibition potential of all the test compounds was evaluated at a concentration of 100 μM. The control reaction (with no inhibitor) with vehicle (DMSO 0.1%) was set at 100% activity. To determine IC50 of the test compounds, the dose dependent enzyme assays were performed. We used range of 0.1 to 50 μM concentrations for MAO-A and 0.1 to 200 μM concentrations of test compounds for the MAO-B enzyme activities. The type of enzyme inhibition was determined using variable concentrations of MAO-A substrate (10–360 µM) and MAO-B substrate (2–64 µM) for the respective enzyme assay. […] A Lineweaver–Burk double reciprocal plot was generated, and the mode of inhibition was determined by visual examination of the plot. The slope of the reciprocal plots was plotted against the inhibitor concentrations and determined the x-axis intercept that represented the inhibitor constant, Ki value.

[2] = molecular target: T1, human recombinant MAO-A; experiment: MAO-A inhibition kinetics (variable substrate, Lineweaver–Burk plot); format: biochemical; set-up: Michaelis-Menten best-fit Vmax of MAO-A / Michaelis-Menten best-fit Vmax of MAO-A, Average: unit not given here; conditions: for MAO-A assay signal (luminescence) / Transformed (reciprocal of MAO-A assay signal) / Michaelis-Menten best-fit Vmax of MAO-A: N=1-3
Method: as §1
All experiments were performed in triplicates and data are presented as mean ± standard error of the mean (SEM). The raw data are provided in Supplementary Data, Table S1. Enzyme kinetic data were analyzed using the Lineweaver–Burk plot. Statistical analysis was performed by Student’s t-test using GraphPad Prism Ver. 7.0 (GraphPad Prism Software Inc., San Diego, CA, USA).

[3] = UroB 0.4 µM, MAO-A substrate 10 uM
[4] = UroB 0.4 µM, MAO-A substrate 20 uM
[5] = UroB 0.4 µM, MAO-A substrate 40 uM
[6] = UroB 0.4 µM, MAO-A substrate 80 uM
[7] = UroB 0.4 µM, MAO-A substrate 160 uM
[8] = UroB 0.4 µM, MAO-A substrate 320 uM
[9] = UroB 2 µM, MAO-A substrate 10 uM
[10] = UroB 2 µM, MAO-A substrate 20 uM
[11] = UroB 2 µM, MAO-A substrate 40 uM
[12] = UroB 2 µM, MAO-A substrate 80 uM
[13] = UroB 2 µM, MAO-A substrate 160 uM
[14] = UroB 2 µM, MAO-A substrate 320 uM

O=c1oc2cc(O)ccc2c2ccccc12 [UB, urolithin-B]
IC50 ([1]; 0–50 μM range, 160 µM substrate, 37 °C, 1 h, read-out: IC50 for MAO-A inhibitory activity): 880 nM | MAO-A enzyme assay, Percent of control ([1]; 0.1 µM): 101.662% of control and 98.0675% of control and 93.5275% of control | MAO-A enzyme assay, Percent of control ([1]; 0.5 µM): 64.4524% of control and 74.8902% of control and 80.9217% of control | MAO-A enzyme assay, Percent of control ([1]; 1 µM): 51.8207% of control and 51.0498% of control and 41.9972% of control | MAO-A enzyme assay, Percent of control ([1]; 5 µM): 37.9544% of control and 37.4055% of control and 33.2487% of control | MAO-A enzyme assay, Percent of control ([1]; 10 µM): 21.8683% of control and 19.2684% of control and 22.2499% of control | MAO-A enzyme assay, Percent of control ([1]; 25 µM): 10.1321% of control and 11.7696% of control and 12.9039% of control | MAO-A enzyme assay, Percent of control ([1]; 50 µM): 6.787% of control and 6.156% of control and 5.227% of control | MAO-A enzyme assay, Percent of control ([1]; 100 µM (Figure 1A), 100 µM): 5.573% of control and 6.858% of control and 6.006% of control | inhibition of MAO-A enzyme activity ([1]; 100 µM, compared to vehicle): 94% | mode of inhibition of MAO-A ([2]; Lineweaver–Burk plot): mixed mode of inhibition | MAO-A assay signal (luminescence), Average [2, 3]: 1545 | MAO-A assay signal (luminescence) [2, 3]: 1603 and 1392 and 1640 | MAO-A assay signal (luminescence), Average [2, 4]: 2811.33 | MAO-A assay signal (luminescence) [2, 4]: 2815 and 2835 and 2784 | MAO-A assay signal (luminescence), Average [2, 5]: 5085 | MAO-A assay signal (luminescence) [2, 5]: 5099 and 4835 and 5321 | MAO-A assay signal (luminescence), Average [2, 6]: 9642.33 | MAO-A assay signal (luminescence) [2, 6]: 9741 and 9698 and 9488 | MAO-A assay signal (luminescence), Average [2, 7]: 17162.3 | MAO-A assay signal (luminescence) [2, 7]: 17107 and 16984 and 17396 | MAO-A assay signal (luminescence), Average [2, 8]: 26885 | MAO-A assay signal (luminescence) [2, 8]: 27251 and 26905 and 26499 | Transformed (reciprocal of MAO-A assay signal), Average ([2]; UroB 0.4 µM, [1/S] 0.003125): 3.72e-5 | Transformed (reciprocal of MAO-A assay signal) ([2]; UroB 0.4 µM, [1/S] 0.003125): 3.67e-5 and 3.717e-5 and 3.774e-5 | Transformed (reciprocal of MAO-A assay signal), Average ([2]; UroB 0.4 µM, [1/S] 0.00625): 5.827e-5 | Transformed (reciprocal of MAO-A assay signal) ([2]; UroB 0.4 µM, [1/S] 0.00625): 5.846e-5 and 5.888e-5 and 5.748e-5 | Transformed (reciprocal of MAO-A assay signal), Average ([2]; UroB 0.4 µM, [1/S] 0.0125): 0.0001037 | Transformed (reciprocal of MAO-A assay signal) ([2]; UroB 0.4 µM, [1/S] 0.0125): 0.0001027 and 0.0001031 and 0.0001054 | Transformed (reciprocal of MAO-A assay signal), Average ([2]; UroB 0.4 µM, [1/S] 0.025): 0.0001967 | Transformed (reciprocal of MAO-A assay signal) ([2]; UroB 0.4 µM, [1/S] 0.025): 0.0001961 and 0.0002068 and 0.0001879 | Transformed (reciprocal of MAO-A assay signal), Average ([2]; UroB 0.4 µM, [1/S] 0.05): 0.0003557 | Transformed (reciprocal of MAO-A assay signal) ([2]; UroB 0.4 µM, [1/S] 0.05): 0.0003552 and 0.0003527 and 0.0003592 | Transformed (reciprocal of MAO-A assay signal), Average ([2]; UroB 0.4 µM, [1/S] 0.1): 0.0006472 | Transformed (reciprocal of MAO-A assay signal) ([2]; UroB 0.4 µM, [1/S] 0.1): 0.0006238 and 0.0007184 and 0.0006098 | MAO-A assay signal (luminescence), Average [2, 9]: 917 | MAO-A assay signal (luminescence) [2, 9]: 965 and 892 and 894 | MAO-A assay signal (luminescence), Average [2, 10]: 1607 | MAO-A assay signal (luminescence) [2, 10]: 1578 and 1604 and 1639 | MAO-A assay signal (luminescence), Average [2, 11]: 2957.33 | MAO-A assay signal (luminescence) [2, 11]: 3058 and 2874 and 2940 | MAO-A assay signal (luminescence), Average [2, 12]: 5505.33 | MAO-A assay signal (luminescence) [2, 12]: 5631 and 5490 and 5395 | MAO-A assay signal (luminescence), Average [2, 13]: 10332.7 | MAO-A assay signal (luminescence) [2, 13]: 10318 and 10224 and 10456 | MAO-A assay signal (luminescence), Average [2, 14]: 17850.7 | MAO-A assay signal (luminescence) [2, 14]: 18126 and 17343 and 18083 | Transformed (reciprocal of MAO-A assay signal), Average ([2]; UroB 2 µM, [1/S] 0.003125): 5.602e-5 | Transformed (reciprocal of MAO-A assay signal) ([2]; UroB 2 µM, [1/S] 0.003125): 5.517e-5 and 5.766e-5 and 5.53e-5 | Transformed (reciprocal of MAO-A assay signal), Average ([2]; UroB 2 µM, [1/S] 0.00625): 9.678e-5 | Transformed (reciprocal of MAO-A assay signal) ([2]; UroB 2 µM, [1/S] 0.00625): 9.6918e-5 and 9.781e-5 and 9.564e-5 | Transformed (reciprocal of MAO-A assay signal), Average ([2]; UroB 2 µM, [1/S] 0.0125): 0.0001816 | Transformed (reciprocal of MAO-A assay signal) ([2]; UroB 2 µM, [1/S] 0.0125): 0.0001776 and 0.0001821 and 0.0001854 | Transformed (reciprocal of MAO-A assay signal), Average ([2]; UroB 2 µM, [1/S] 0.025): 0.0003381 | Transformed (reciprocal of MAO-A assay signal) ([2]; UroB 2 µM, [1/S] 0.025): 0.000327 and 0.0003479 and 0.0003401 | Transformed (reciprocal of MAO-A assay signal), Average ([2]; UroB 2 µM, [1/S] 0.05): 0.0006223 | Transformed (reciprocal of MAO-A assay signal) ([2]; UroB 2 µM, [1/S] 0.05): 0.0006337 and 0.0006234 and 0.0006101 | Transformed (reciprocal of MAO-A assay signal), Average ([2]; UroB 2 µM, [1/S] 0.1): 0.001091 | Transformed (reciprocal of MAO-A assay signal) ([2]; UroB 2 µM, [1/S] 0.1): 0.001036 and 0.001121 and 0.001119 | Michaelis-Menten best-fit Vmax of MAO-A, Average ([2]; in presence of UroB 0.4 uM): 65357.3 | Michaelis-Menten best-fit Vmax of MAO-A ([2]; in presence of UroB 0.4 uM): 61114 and 67822 and 67136 | Michaelis-Menten best-fit Vmax of MAO-A, Average ([2]; in presence of UroB 2 uM): 66008.7 | Michaelis-Menten best-fit Vmax of MAO-A ([2]; in presence of UroB 2 uM): 58741 and 70969 and 68316 | Ki ([2]; x-axis intercept of slopes of Lineweaver–Burk plots vs inhibitor concentration): 2300 nM

— publication PMC7345905, “Microbial Metabolite Urolithin B Inhibits Recombinant Human Monoamine Oxidase A Enzyme” (Metabolites, 2020)
